Converted amounts (≈) assume the structure as drawn.
What was measured:
Type in all cases: functional, cell-based
[1] = system: T-24; test: Cytotoxicity evaluated by incorporation of [methyl-3H]thymidine into human T24, a bladder carcinoma cell line.
[2] = system: MRC5CV1; test: Cytotoxicity evaluated by incorporation of [methyl-3H]thymidine into human MRC5CV1, a control fibroblast cell line
[3] = system: P388; test: Cytotoxicity in vitro against P388 cell line.; settings: Mus musculus
[4] = system: T-24; test: Cytotoxicity evaluated by incorporation of [methyl-3H]thymidine into human T24, a bladder carcinoma cell line

| Compound | IC50 [1] [µg/mL] | IC50 [2] [µg/mL] | IC50 [3] [µg/mL] | IC50 [4] [µg/mL] |
| --- | --- | --- | --- | --- |
| C/C=C/C(=O)CC1CCC2(O)CC(C)C(CCCNC(=O)C(C)C3CNC(=O)CC(O1)C(C)CCCCC(CCC(C)/C=C(\C)C(C)O)O3)O2 (centres undefined) [BISTRATENE A] | 0.07 (≈ 0.0993 µM) | 0.07 (≈ 0.0993 µM) |  |  |
| CCC/C=C/C=C/C(=O)O[C@H]1/C(=C/C(=O)OC)C[C@H]2CC([C@@H](C)O)OC(=O)C[C@H](O)C[C@@H]3C[C@H](OC(C)=O)C(C)(C)[C@](O)(C[C@@H]4C/C(=C/C(=O)OC)C[C@H](/C=C/C(C)(C)[C@]1(O)O2)O4)O3 (some centres undefined) [BRYOSTATINS] |  |  | 0.89 (≈ 0.983 µM) |  |
| CC(C)[C@@H]1NC(=O)C2CSC(=N2)[C@H](Cc2ccccc2)NC(=O)C2CSC(=N2)[C@@H](C)NC(=O)[C@H]2N=C1O[C@@H]2C [BISTRATAMIDE A] | 0.07 (≈ 0.123 µM) | 50 (≈ 87.6 µM) |  |  |
| CC(C)[C@@H]1NC(=O)c2csc(n2)[C@H](Cc2ccccc2)NC(=O)C2CSC(=N2)[C@@H](C)NC(=O)[C@H]2N=C1O[C@@H]2C [BISTRATAMIDE B] |  | > 100 |  | 0.09 (≈ 0.158 µM) |
| C/C=C/C(=O)CC1CCC2(O)CC(C)C(CCCNC(=O)C(C)C3CNC(=O)CC(O1)C(C)CCCCC(CCC(C)/C=C(\C)C(C)OC(C)=O)O3)O2 (centres undefined) [BISTRATENE B] | 0.09 (≈ 0.12 µM) | 0.09 (≈ 0.12 µM) |  |  |

— ChEMBL document CHEMBL1124501, “Novel cytotoxic compounds from the ascidian Lissoclinum bistratum” (J Med Chem, 1989)
